Paper PMC9841523 (Journal of Medicinal Chemistry, 2022)
pIC50: −log10 of the molar value. Read-outs that look alike come from different tables or passages of the source.

What was measured:
[1] = target: T1, EGFR (Homo sapiens, UniProt P00533); assay: KiNativ kinase panel; assay type: cell-based; conditions: 1 μM, MCF-7 Cells
T1 construct: MCF7 cells were exposed to; endogenous in cells; host or cells: MCF7

[2] = target: T2, SMG1 (Homo sapiens, UniProt Q96Q15); assay: KiNativ kinase panel; assay type: cell-based; conditions: 1 μM, MCF-7 Cells, ATP
T2 construct: endogenous in cells; host or cells: MCF7
T2 sequence (Q96Q15 whole entry): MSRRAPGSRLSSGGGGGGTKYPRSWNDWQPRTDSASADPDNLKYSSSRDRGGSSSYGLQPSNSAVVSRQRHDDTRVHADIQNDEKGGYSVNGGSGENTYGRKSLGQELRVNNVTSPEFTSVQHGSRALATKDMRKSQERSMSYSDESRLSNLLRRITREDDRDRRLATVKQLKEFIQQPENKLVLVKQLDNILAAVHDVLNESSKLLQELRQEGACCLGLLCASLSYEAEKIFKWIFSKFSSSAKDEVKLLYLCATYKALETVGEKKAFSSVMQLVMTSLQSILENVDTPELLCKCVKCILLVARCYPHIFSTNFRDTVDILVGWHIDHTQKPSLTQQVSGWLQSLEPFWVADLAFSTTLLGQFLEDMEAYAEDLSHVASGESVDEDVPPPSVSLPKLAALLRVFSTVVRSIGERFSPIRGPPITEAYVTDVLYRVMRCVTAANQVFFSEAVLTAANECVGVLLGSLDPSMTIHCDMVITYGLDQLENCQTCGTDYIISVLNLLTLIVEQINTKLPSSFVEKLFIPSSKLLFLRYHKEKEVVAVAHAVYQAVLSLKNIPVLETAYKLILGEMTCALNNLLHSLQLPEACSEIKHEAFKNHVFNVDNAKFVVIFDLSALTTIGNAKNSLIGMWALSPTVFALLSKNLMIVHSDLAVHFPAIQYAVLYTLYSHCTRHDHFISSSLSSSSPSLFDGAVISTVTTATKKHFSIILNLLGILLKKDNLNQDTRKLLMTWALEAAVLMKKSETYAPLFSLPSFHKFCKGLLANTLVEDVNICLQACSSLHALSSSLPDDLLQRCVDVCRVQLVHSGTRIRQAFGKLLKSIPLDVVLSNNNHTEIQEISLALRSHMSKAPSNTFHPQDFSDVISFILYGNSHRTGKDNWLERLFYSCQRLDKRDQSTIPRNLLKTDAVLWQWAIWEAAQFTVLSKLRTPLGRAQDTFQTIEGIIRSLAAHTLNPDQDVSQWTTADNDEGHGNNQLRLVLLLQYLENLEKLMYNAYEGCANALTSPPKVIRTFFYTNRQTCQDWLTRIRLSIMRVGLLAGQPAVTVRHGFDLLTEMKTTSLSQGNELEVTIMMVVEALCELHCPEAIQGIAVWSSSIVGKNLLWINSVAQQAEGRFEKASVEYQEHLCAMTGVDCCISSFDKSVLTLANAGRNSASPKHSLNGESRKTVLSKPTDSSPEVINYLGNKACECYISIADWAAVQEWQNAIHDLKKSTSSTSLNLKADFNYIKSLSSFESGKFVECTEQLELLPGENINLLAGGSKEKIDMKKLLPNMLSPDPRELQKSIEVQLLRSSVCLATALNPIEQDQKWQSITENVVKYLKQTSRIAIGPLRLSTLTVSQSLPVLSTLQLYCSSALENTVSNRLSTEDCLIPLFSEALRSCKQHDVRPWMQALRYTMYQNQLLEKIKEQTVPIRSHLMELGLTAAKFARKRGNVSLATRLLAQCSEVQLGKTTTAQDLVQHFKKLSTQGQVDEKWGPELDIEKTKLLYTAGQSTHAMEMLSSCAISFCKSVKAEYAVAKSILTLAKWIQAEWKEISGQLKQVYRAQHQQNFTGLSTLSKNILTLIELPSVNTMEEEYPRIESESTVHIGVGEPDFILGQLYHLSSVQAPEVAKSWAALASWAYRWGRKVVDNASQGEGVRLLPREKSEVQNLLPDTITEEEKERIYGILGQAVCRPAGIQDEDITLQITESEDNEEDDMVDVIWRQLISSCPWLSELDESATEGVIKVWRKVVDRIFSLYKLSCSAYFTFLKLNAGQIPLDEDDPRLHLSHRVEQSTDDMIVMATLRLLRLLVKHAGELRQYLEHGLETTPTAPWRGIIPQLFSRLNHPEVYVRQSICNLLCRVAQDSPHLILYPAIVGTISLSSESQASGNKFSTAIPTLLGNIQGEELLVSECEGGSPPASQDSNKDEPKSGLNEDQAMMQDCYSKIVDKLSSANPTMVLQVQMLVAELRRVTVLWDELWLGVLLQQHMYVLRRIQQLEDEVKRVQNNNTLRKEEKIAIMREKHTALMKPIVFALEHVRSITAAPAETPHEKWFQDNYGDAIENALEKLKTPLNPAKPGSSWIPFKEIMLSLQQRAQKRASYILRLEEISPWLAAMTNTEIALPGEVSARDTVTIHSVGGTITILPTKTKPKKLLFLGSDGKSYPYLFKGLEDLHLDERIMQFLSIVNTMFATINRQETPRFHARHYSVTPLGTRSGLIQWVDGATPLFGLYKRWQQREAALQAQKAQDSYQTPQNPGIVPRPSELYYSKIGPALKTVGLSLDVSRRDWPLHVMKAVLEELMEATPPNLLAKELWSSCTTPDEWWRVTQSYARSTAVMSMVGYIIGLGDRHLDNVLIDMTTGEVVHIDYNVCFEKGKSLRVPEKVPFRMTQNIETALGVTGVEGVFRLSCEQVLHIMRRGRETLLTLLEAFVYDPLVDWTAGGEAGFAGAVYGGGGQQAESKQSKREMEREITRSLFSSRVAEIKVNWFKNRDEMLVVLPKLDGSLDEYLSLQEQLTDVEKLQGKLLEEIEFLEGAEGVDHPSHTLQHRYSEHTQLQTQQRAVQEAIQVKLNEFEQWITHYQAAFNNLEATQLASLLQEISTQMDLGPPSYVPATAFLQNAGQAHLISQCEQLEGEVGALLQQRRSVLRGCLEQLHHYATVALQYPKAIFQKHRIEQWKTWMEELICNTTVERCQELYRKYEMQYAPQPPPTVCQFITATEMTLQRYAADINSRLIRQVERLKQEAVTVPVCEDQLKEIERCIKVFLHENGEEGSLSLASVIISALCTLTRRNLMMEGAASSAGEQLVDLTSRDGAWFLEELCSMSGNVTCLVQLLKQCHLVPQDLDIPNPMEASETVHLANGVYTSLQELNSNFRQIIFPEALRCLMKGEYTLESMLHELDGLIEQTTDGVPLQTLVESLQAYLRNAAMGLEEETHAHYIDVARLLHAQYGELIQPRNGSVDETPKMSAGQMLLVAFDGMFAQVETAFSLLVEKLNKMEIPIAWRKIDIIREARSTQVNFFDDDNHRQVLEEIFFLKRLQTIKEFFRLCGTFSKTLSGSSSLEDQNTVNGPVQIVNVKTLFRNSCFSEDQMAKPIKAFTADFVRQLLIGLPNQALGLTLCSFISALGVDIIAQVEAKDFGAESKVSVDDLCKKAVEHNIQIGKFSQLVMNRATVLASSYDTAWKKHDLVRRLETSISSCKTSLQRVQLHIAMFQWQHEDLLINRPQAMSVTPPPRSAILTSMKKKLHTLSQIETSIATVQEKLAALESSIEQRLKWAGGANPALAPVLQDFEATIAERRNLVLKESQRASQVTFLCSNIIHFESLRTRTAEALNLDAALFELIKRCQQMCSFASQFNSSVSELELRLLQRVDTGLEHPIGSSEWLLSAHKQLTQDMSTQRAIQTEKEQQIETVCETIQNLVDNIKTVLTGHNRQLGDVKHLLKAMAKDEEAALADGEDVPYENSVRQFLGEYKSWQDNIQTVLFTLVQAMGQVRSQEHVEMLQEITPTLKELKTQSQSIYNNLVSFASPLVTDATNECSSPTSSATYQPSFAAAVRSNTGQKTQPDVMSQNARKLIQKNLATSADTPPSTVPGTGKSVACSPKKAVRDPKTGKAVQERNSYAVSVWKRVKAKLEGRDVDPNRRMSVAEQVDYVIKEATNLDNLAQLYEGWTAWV

[3] = target: T3, CK1g1 (Homo sapiens, UniProt Q9HCP0); assay: KiNativ kinase panel; assay type: cell-based; conditions: 1 μM, MCF-7 Cells, Lys2
T3 construct: endogenous in cells; host or cells: MCF7

[4] = target: T4, NuaK2 (Homo sapiens, UniProt Q9H093); assay: KiNativ kinase panel; assay type: cell-based; conditions: 1 μM; MCF-7 Cells; Lys1; LVAIKSIR
T4 construct: purchased ActivX Biosciences (KiNativ)

[5] = tested on: MAP2K1, MAP2K2; assay: KiNativ kinase panel; assay type: cell-based, human; conditions: 1 μM, MCF-7 Cells
[6] = target: T5, DNA-PK (Homo sapiens, UniProt P78527); assay: Nanosyn Lipid Kinase screen; assay type: biochemical
T5 construct: purchased Promega V4106
Procedure: complex formation) controls.
Nanosyn Lipid Kinase screen. Biochemical inhibition of lipid and related protein kinases was determined by Nanosyn (Santa Clara, CA). […]
ADP formation using ADP-Glo (Promega). Kinase reactions were assembled in 384 well plates in a total volume of 20 µL as follows. […]
Compounds were serially pre-diluted in DMSO and added to the protein samples by acoustic dispensing (200 nL, Labcyte Echo). Concentration of DMSO was equalized to 1% in all samples. All test compounds were tested at 12 concentrations, 3x dilution intervals. The control samples (0%-inhibition in the absence of inhibitor, DMSO only) and 100%-inhibition (in the absence of enzyme) were assembled in replicates of four and were used to calculate %-inhibition in the presence of compounds. […]

[7] = tested on: MER, TYRO3; assay: KiNativ kinase panel; assay type: cell-based, human; conditions: 1 μM; MCF-7 Cells; Activation Loop; KIYSGDYYR
[8] = target: T6, PIP5K3 (Homo sapiens, UniProt Q9Y2I7); assay: KiNativ kinase panel; assay type: cell-based; conditions: 1 μM; MCF-7 Cells; ATP; GGKSGAAFYATEDDRFILK
T6 construct: purchased ActivX Biosciences (KiNativ)

[9] = target: T7, SYK (Homo sapiens, UniProt P43405); assay: KiNativ kinase panel; assay type: cell-based; conditions: 1 μM, MCF-7 Cells
T7 construct: MCF7 cells were exposed to; endogenous in cells; host or cells: MCF7

[10] = tested on: MARK2, MARK3; assay: KiNativ kinase panel; assay type: cell-based, human; conditions: 1 μM, MCF-7 Cells, Lys2
[11] = target: T8, MARK4 (Homo sapiens, UniProt Q96L34); assay: KiNativ kinase panel; assay type: cell-based; conditions: 1 μM, MCF-7 Cells
T8 construct: purchased ActivX Biosciences (KiNativ)
T8 sequence (Q96L34 1-752): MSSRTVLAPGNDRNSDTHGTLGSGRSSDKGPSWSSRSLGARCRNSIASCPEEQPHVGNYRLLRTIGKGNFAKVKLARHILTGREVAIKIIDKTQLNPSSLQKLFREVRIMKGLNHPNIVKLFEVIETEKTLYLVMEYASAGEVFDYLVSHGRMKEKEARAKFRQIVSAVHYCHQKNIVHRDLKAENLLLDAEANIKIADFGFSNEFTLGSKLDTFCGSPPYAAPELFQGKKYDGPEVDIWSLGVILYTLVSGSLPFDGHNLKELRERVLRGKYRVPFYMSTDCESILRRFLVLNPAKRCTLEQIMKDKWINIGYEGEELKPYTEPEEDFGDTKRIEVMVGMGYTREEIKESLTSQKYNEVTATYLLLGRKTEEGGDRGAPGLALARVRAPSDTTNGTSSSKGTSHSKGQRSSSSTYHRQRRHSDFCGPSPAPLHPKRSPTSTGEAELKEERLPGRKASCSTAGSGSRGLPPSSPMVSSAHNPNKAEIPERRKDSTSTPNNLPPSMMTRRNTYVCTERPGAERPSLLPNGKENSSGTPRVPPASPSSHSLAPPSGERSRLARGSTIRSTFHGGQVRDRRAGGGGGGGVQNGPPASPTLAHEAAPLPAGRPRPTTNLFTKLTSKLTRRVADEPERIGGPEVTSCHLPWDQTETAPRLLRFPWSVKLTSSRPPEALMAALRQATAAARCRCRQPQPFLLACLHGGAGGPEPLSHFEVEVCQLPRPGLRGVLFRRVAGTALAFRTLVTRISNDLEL

[12] = target: T9, CHK1 (Homo sapiens, UniProt O14757); assay: KiNativ kinase panel; assay type: cell-based; conditions: 1 μM, MCF-7 Cells
T9 construct: host or cells: MCF7
T9 sequence (O14757 1-476): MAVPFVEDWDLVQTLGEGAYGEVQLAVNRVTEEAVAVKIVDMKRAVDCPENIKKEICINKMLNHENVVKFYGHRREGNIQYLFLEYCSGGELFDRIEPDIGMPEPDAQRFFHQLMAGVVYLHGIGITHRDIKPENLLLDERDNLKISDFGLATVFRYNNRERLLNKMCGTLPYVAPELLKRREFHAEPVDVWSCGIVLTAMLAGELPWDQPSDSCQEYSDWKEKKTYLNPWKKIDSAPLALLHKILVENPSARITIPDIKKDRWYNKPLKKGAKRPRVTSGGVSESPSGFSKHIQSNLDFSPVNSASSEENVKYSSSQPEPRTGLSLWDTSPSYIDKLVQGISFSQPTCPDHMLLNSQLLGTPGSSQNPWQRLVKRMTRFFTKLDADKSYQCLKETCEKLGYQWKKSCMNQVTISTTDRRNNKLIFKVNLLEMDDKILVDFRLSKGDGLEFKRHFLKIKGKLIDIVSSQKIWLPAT

[13] = tested on: NEK6, NEK7; assay: KiNativ kinase panel; assay type: cell-based, human; conditions: 1 μM, MCF-7 Cells, Lys2
[14] = target: T10, MST3 (Homo sapiens, UniProt Q9Y6E0); assay: KiNativ kinase panel; assay type: cell-based; conditions: 1 μM; MCF-7 Cells; Lys2; DIKAANVLLSEHGEVK
T10 construct: purchased ActivX Biosciences (KiNativ)

[15] = tested on: TAO1, TAO3; assay: KiNativ kinase panel; assay type: cell-based, human; conditions: 1 μM, MCF-7 Cells, Lys2
[16] = tested on: Wnk1, Wnk2; assay: KiNativ kinase panel; assay type: cell-based, human; conditions: 1 μM; MCF-7 Cells; ATP Loop; GSFKTVYK
[17] = tested on: CaMK2a, CaMK2b, CaMK2d, CaMK2g; assay: KiNativ kinase panel; assay type: cell-based; conditions: 1 μM, MCF-7 Cells, Lys2

T1 sequence (P00533 25-1210): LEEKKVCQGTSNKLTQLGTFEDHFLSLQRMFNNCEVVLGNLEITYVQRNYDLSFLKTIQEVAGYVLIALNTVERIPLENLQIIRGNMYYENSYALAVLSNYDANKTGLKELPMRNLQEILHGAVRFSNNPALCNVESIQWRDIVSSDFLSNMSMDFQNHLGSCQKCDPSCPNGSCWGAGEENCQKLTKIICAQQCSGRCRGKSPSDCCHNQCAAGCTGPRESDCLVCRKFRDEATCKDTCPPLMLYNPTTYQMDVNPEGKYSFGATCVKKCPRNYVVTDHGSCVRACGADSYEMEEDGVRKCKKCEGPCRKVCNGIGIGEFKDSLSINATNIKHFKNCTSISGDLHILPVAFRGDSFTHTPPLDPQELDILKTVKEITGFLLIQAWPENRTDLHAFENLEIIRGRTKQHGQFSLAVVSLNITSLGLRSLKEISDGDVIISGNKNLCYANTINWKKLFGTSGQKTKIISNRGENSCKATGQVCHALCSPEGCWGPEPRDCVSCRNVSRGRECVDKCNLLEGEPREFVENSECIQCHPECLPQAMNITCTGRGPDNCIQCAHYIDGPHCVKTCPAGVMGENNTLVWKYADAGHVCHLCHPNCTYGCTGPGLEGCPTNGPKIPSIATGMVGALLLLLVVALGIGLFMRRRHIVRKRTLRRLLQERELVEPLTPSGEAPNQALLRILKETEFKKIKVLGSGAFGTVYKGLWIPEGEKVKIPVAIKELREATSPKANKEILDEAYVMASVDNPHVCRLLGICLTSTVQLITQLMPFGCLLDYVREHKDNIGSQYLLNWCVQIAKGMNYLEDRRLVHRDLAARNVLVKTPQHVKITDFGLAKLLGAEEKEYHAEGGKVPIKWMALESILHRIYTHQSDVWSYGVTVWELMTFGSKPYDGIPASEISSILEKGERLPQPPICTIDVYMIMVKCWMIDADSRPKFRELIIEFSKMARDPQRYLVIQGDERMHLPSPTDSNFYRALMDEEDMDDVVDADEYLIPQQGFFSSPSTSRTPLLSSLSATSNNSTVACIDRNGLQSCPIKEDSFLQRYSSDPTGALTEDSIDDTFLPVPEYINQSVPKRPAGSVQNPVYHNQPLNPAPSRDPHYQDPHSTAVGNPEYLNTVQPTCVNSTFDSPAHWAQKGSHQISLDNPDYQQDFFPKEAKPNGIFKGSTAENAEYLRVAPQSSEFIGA

SMILES | KiNativ Kinase Panel Data ([1]; Lys1, IPVAIKELR) | KiNativ Kinase Panel Data ([2]; DTVTIHSVGGTITILPTKTKPK) | KiNativ Kinase Panel Data ([2]; SYPYLFKGLEDLHLDER) | KiNativ Kinase Panel Data [4] | KiNativ Kinase Panel Data ([5]; Lys1, KLIHLEIKPAIR) | KiNativ Kinase Panel Data [7] | KiNativ Kinase Panel Data [8] | KiNativ Kinase Panel Data ([9]; Activation Loop, ISDFGLSKALR) | KiNativ Kinase Panel Data ([9]; Lys1, TVAVKILK) | KiNativ Kinase Panel Data ([11]; Lys2, DLKAENLLLDAEANIK) | KiNativ Kinase Panel Data [14] | KiNativ Kinase Panel Data [16] | other results
CO[C@H]1C[C@@H]2CC[C@@H](C)[C@@](O)(O2)C(=O)C(=O)N2CCCC[C@H]2C(=O)O[C@H]([C@H](C)C[C@@H]2CC[C@@H](OC(=O)NCCOCCOCCOCCOCCOCCOCCOCCOCCC(=O)N3CCc4cc(Cn5nc(-c6ccc7oc(N)nc7c6)c6c(N)ncnc65)ccc4C3)[C@H](OC)C2)C[C@@H](O)[C@H](C)/C=C(\C)[C@@H](O)[C@@H](OC)C(=O)[C@H](C)C[C@H](C)/C=C/C=C/C=C/1C [compound 38] | -7.4 | 0.8 | 21.6 | 18.8 | 14.8 | -0.7 | 0.8 | 18.4 | 14.0 | 20.6 | 22.2 | 13.6 | KiNativ Kinase Panel Data ([1]; Activation Loop, […]): -1.8; KiNativ Kinase Panel Data ([3]; […]): 4.7; KiNativ Kinase Panel Data ([5]; Lys2, […]): 7.6; pIC50 [6]: < 6.00; KiNativ Kinase Panel Data ([9]; Activation Loop, […]): 6.4; KiNativ Kinase Panel Data ([10]; […]): -0.4; KiNativ Kinase Panel Data ([11]; Lys1, […]): 7.0; KiNativ Kinase Panel Data ([12]; Lys2, […]): -13.6; KiNativ Kinase Panel Data ([12]; Other, […]): 25.4; KiNativ Kinase Panel Data ([13]; […]): 11.1; KiNativ Kinase Panel Data ([15]; […]): -1.7; KiNativ Kinase Panel Data ([17]; […]): 26.2
CO[C@H]1C[C@@H]2CC[C@@H](C)[C@@](O)(O2)C(=O)C(=O)N2CCCC[C@H]2C(=O)O[C@H]([C@H](C)C[C@@H]2CC[C@@H](OC(=O)NCCOCCOCCOCCOCCOCCOCCOCCOCCC(=O)NCCS(=O)(=O)c3ccc(C(=O)N4CCOc5ccc(-c6ccc(N)nc6)cc5C4)c(C)c3F)[C@H](OC)C2)C[C@@H](O)[C@H](C)/C=C(\C)[C@@H](O)[C@@H](OC)C(=O)[C@H](C)C[C@H](C)/C=C/C=C/C=C/1C [compound 40] | -27.8 | -11.1 | 11.7 | 16.0 | -34.9 | 7.1 | 19.9 | -14.3 | -3.7 | 22.2 | 11.0 | -3.7 | KiNativ Kinase Panel Data ([1]; Activation Loop, LLGAEEKEYHAEGGKVPIK): -40.0; KiNativ Kinase Panel Data ([3]; DVKPENFLIGR): 1.3; KiNativ Kinase Panel Data ([5]; Lys2, DVKPSNILVNSR): -22.1; pIC50 ([6]; Nanosyn, with FKBP12): < 6.00; KiNativ Kinase Panel Data ([9]; Activation Loop, AQTHGKWPVK): 13.3; KiNativ Kinase Panel Data ([10]; DLKAENLLLDADMNIK): 15.7; KiNativ Kinase Panel Data ([11]; Lys1, EVAIKIIDKTQLNPSSLQK): 24.2; KiNativ Kinase Panel Data ([12]; Lys2, DIKPENLLLDER): -10.9; KiNativ Kinase Panel Data ([12]; Other, LSKGDGLEFK): 19.6; KiNativ Kinase Panel Data ([13]; DIKPANVFITATGVVK): -12.6; KiNativ Kinase Panel Data ([15]; DIKAGNILLTEPGQVK): -29.7; KiNativ Kinase Panel Data ([17]; DLKPENLLLASK): -30.6
